Source: ChEMBL document CHEMBL5233258, “Recent developments of gallic acid derivatives and their hybrids in medicinal chemistry: A review” (Eur J Med Chem, 2020)
pIC50: −log10 of the molar value. In brackets after ≈: the same amount, converted by molar mass.

What was measured:
[1] = system: MCF7; assay: Anticancer activity against human MCF7 cells assessed as inhibition of cell growth incubated for 24 hrs by MTT assay; type: functional, cell-based; conditions: MCF7, 24 h
[2] = Antioxidant activity assessed as DPPH radical scavenging activity measured after 30 mins by spectrophotometric analysis; type: functional
[3] = system: HCT-116; assay: Anticancer activity against human HCT-116 cells assessed as inhibition of cell growth incubated for 24 hrs by MTT assay; type: functional, cell-based; conditions: HCT-116, 24 h
[4] = system: Pseudomonas aeruginosa; assay: Antibacterial activity against Pseudomonas aeruginosa assessed as zone of inhibition incubated for 24 hrs by agar diffusion method; type: functional
[5] = system: Escherichia coli; assay: Antibacterial activity against Escherichia coli assessed as zone of inhibition incubated for 24 hrs by agar diffusion method; type: functional
[6] = Antioxidant activity assessed as DPPH radical scavenging activity measured after 30 mins; type: functional
[7] = system: Plasmodium falciparum; assay: Antimalarial activity against Plasmodium falciparum; type: functional, organism-based
[8] = system: MCF7; assay: Cytotoxicity against human MCF7 cells assessed as reduction in cell viability incubated for 72 hrs by MTT assay; type: functional, cell-based; conditions: MCF7, 72 h
[9] = system: HCT-116; assay: Cytotoxicity against human HCT-116 cells assessed as reduction in cell viability incubated for 72 hrs by MTT assay; type: functional, cell-based; conditions: HCT-116, 72 h
[10] = Antioxidant activity assessed as DPPH radical scavenging activity; type: functional
[11] = Antioxidant activity assessed as ABTS radical scavenging activity; type: functional
[12] = system: HeLa; assay: Anticancer activity against human HeLa cells assessed as inhibition of cell growth incubated for 24 hrs by MTT assay; type: functional, cell-based
[13] = Inhibition of recombinant HIV-1 integrase using V1/V2 as substrate assessed as 3'-end processing of the substrate incubated for 1 hrs; parameters: species or system Human immunodeficiency virus 1
[14] = system: Staphylococcus aureus; assay: Antibacterial activity against Staphylococcus aureus ATCC 12598 assessed as inhibition of bacterial growth incubated for 48 hrs by broth macrodilution method; type: functional
[15] = system: Staphylococcus aureus; assay: Bactericidal activity against Staphylococcus aureus ATCC 12598 assessed as inhibition of bacterial growth incubated for 48 hrs by broth macrodilution method; type: functional
[16] = system: Corynebacterium ammoniagenes; assay: Bactericidal activity against Brevibacterium ammoniagenes ATCC 6872 assessed as inhibition of bacterial growth incubated for 48 hrs by broth macrodilution method; type: functional
[17] = system: Bacillus subtilis; assay: Antibacterial activity against Bacillus subtilis ATCC 9372 assessed as inhibition of bacterial growth incubated for 48 hrs by broth macrodilution method; type: functional
[18] = system: Corynebacterium ammoniagenes; assay: Antibacterial activity against Brevibacterium ammoniagenes ATCC 6872 assessed as inhibition of bacterial growth incubated for 48 hrs by broth macrodilution method; type: functional
[19] = system: Micrococcus luteus; assay: Bactericidal activity against Micrococcus luteus ATCC 4698 assessed as inhibition of bacterial growth incubated for 48 hrs by broth macrodilution method; type: functional
[20] = system: Micrococcus luteus; assay: Antibacterial activity against Micrococcus luteus ATCC 4698 assessed as inhibition of bacterial growth incubated for 48 hrs by broth macrodilution method; type: functional
[21] = system: Bacillus subtilis; assay: Bactericidal activity against Bacillus subtilis ATCC 9372 assessed as inhibition of bacterial growth incubated for 48 hrs by broth macrodilution method; type: functional
[22] = system: Bacillus subtilis; assay: Bactericidal activity against Bacillus subtilis ATCC 6633 by Mueller-Hinton broth method; type: functional
[23] = system: Bacillus subtilis; assay: Antibacterial activity against Bacillus subtilis ATCC 6633 by Mueller-Hinton broth method; type: functional
[24] = Antioxidant activity in ethanol solution by DPPH scavenging assay; type: functional
[25] = system: Human alphaherpesvirus 2; assay: Antiviral activity against Herpes simplex viruses type 2 MS infected in Monkey BGM cells; type: functional, organism-based; conditions: Human alphaherpesvirus 2, MS
[26] = Antioxidant activity in DOPC loaded liposomes by DPPH scavenging assay; type: physicochemical
[27] = Inhibition of recombinant HIV-1 integrase using 32-P labeled dBY-1 as substrate assessed as disintegration of substrate incubated for 1 hrs; parameters: species or system Human immunodeficiency virus 1
[28] = system: HepG2; assay: Cytotoxicity against human HepG2 cells by MTT assay; type: functional, cell-based
[29] = system: HCT-116; assay: Cytotoxicity against human HCT-116 cells by MTT assay; type: functional, cell-based
[30] = system: Mycobacterium tuberculosis; assay: Antitubercular activity against Mycobacterium tuberculosis H37 Rv ATCC 27294 incubated for 7 days by Alamar blue assay; type: functional; conditions: H37 Rv ATCC 27294, 168 h, time 7 day

Question: With `COc1cc(/C=C\c2cc3c(cc2OC(C)=O)CC[C@@H]2[C@@H]3CC[C@]3(C)[C@@H](OC(C)=O)CC[C@@H]23)cc(OC)c1OC` as the molecule, how does the pIC50 [1] read?
Answer: Its pIC50 is 5.12.

Question: With `Cc1c(C)c2c(c(C)c1O)CC[C@@](C)(CCC[C@H](C)CCC[C@H](C)CCCC(C)C)O2` [ALPHA-TOCOPHEROL] as the molecule, how does the pIC50 [2] read?
Answer: Its pIC50 is 3.04.

Question: Which IC50 [3] does the source give for `N#Cc1c(NC(=O)c2cc(O)c(O)c(O)c2)sc2c1CCCCC2` here?
Answer: The IC50 was 3.2 µg/mL (≈ 9.29 µM).

Question: What does the source list for `COc1cc(C(=O)NN=Cc2nc(-c3ccccc3)c[nH]2)cc(OC)c1OC`?
Answer: inhibition zone (IZ) [4]: 17 mm; inhibition zone (IZ) [5]: 17 mm

Question: With `C/C(=N/NC(=O)c1cc(O)c(O)c(O)c1)c1cc(Cl)ccc1O` as the molecule, how does the IC50 [6] read?
Answer: The IC50 was 1.14 µg/mL (≈ 3.39 µM).

Question: With `CCCCCCOC(=O)c1cc(O)c(O)c(O)c1` [HEXYL GALLATE] as the molecule, how does the pIC50 [7] read?
Answer: Its pIC50 is 3.96.

Question: With `COc1cc(/C=C/C(=O)CC(=O)/C=C/c2ccc(O)c(OC)c2)ccc1O` [CURCUMIN] as the molecule, how does the pIC50 [8] read?
Answer: Its pIC50 is 4.86.

Question: What about the pIC50 [9] of the same molecule?
Answer: The pIC50 was 4.46.

Question: With `O=C1O[C@H]([C@@H](O)CO)C(O)=C1O` [ASCORBIC ACID] as the molecule, how does the pIC50 [10] read?
Answer: The pIC50 was 4.74.

Question: And the pIC50 [11]?
Answer: The pIC50 was 4.52.

Question: What about the IC50 [6] of the same molecule?
Answer: Its IC50 is 2.26 µg/mL (≈ 12.8 µM).

Question: What about the pIC50 [2] of the same molecule?
Answer: The pIC50 was 3.01.

Question: With `N#Cc1c(NC(=O)c2cc(O)c(O)c(O)c2)sc2c1CCC2` as the molecule, how does the IC50 [12] read?
Answer: Its IC50 is 59.4 µg/mL (≈ 188 µM).

Question: With `O=C(OC[C@]1(O)C[C@@H](O)[C@@H](O)[C@H](OC(=O)c2cc(O)c(O)c(O)c2)C1)c1cc(O)c(O)c(O)c1` as the molecule, how does the pIC50 [13] read?
Answer: Its pIC50 is 5.55.

Question: For `COc1cccc(OC)c1C(=O)N[C@@H]1C(=O)N2[C@@H]1SC(C)(C)[C@@H]2C(=O)O` [METHICILLIN], which MIC [14] is on record?
Answer: The MIC was 1.56 µg/mL (≈ 4.1 µM).

Question: And the MBC [15]?
Answer: Its MBC is > 6.25 µg/mL.

Question: What about the MBC [16] of the same molecule?
Answer: Its MBC is 25 µg/mL (≈ 65.7 µM).

Question: What about the MIC [17] of the same molecule?
Answer: Its MIC is 1.56 µg/mL (≈ 4.1 µM).

Question: What about the MIC [18] of the same molecule?
Answer: The MIC was 25 µg/mL (≈ 65.7 µM).

Question: What about the MBC [19] of the same molecule?
Answer: The MBC was 6.25 µg/mL (≈ 16.4 µM).

Question: And the MIC [20]?
Answer: Its MIC is 6.25 µg/mL (≈ 16.4 µM).

Question: And the MBC [21]?
Answer: The MBC was 6.25 µg/mL (≈ 16.4 µM).

Question: Which results are given for `CCCCCCCCCC[N+](C)(C)CCO`?
Answer: MBC [22]: 1200 µM; MIC [23]: 1200 µM

Question: Which results are given for `COC(=O)c1cc(O)c(O)c(O)c1` [GALLIC ACID METHYL ESTER]?
Answer: pIC50 [24]: 5.14; pIC50 [25]: 6.65; pIC50 [26]: 5.08; pIC50 [7]: 4.52

Question: For `CCCCCCCCCC[N+]1(C)CCCCC1`, which MBC [22] is on record?
Answer: The MBC was 1000 µM.

Question: What about the MIC [23] of the same molecule?
Answer: The MIC was 1000 µM.

Question: Which results are given for `Oc1cc(-c2nnc(Cc3nnc(-c4cc(O)c(O)c(O)c4)o3)o2)cc(O)c1O`?
Answer: pIC50 [10]: 4.83; pIC50 [11]: 4.61

Question: Which “inhibition zone (IZ)” value [4] does the source give for `COc1cc(C(=O)N/N=C/c2ccnc3ccccc23)cc(OC)c1OC` here?
Answer: The value was 17 mm.

Question: What about the “inhibition zone (IZ)” value [5] of the same molecule?
Answer: The value was 17 mm.

Question: Which “inhibition zone (IZ)” value [4] does the source give for `COc1cc(C(=O)N/N=C/c2cc3ccccc3[nH]2)cc(OC)c1OC` here?
Answer: Its value is 17 mm.

Question: What about the “inhibition zone (IZ)” value [5] of the same molecule?
Answer: The value was 17 mm.

Question: With `O=C(/C=C/c1ccc(O)c(O)c1)O[C@@H]1C[C@](O)(C(=O)O)C[C@@H](OC(=O)/C=C/c2ccc(O)c(O)c2)[C@H]1O` as the molecule, how does the pIC50 [27] read?
Answer: Its pIC50 is 5.26.

Question: What does the source list for `O=C(O)c1cc(O)c(O)c(O)c1` [GALLIC ACID]?
Answer: IC50 [12]: 26.3 µg/mL (≈ 155 µM); IC50 [3]: 41.8 µg/mL (≈ 246 µM)

Question: Which “inhibition zone (IZ)” value [4] does the source give for `COc1cc(C(=O)N/N=C/c2ccc(-c3ccccn3)cc2)cc(OC)c1OC` here?
Answer: The value was 17 mm.

Question: And the “inhibition zone (IZ)” value [5]?
Answer: Its value is 17 mm.

Question: Which “inhibition zone (IZ)” value [5] does the source give for `COC1=CC(=O)C[C@@H](C)[C@]12Oc1c(Cl)c(OC)cc(OC)c1C2=O` [GRISEOFULVIN] here?
Answer: The value was 22 mm.

Question: With `COc1ccc(C2CC(c3ccc(OC)c(OC)c3)=NN2C(=O)c2cc(O)c(O)c(O)c2)cc1` (centres undefined) as the molecule, how does the IC50 [28] read?
Answer: Its IC50 is 8.4 µg/mL (≈ 18.1 µM).

Question: What about the IC50 [29] of the same molecule?
Answer: The IC50 was 18.6 µg/mL (≈ 40 µM).

Question: For `NNC(=O)c1ccncc1` [ISONIAZID], which MIC [30] is on record?
Answer: The MIC was 0.56 µg/mL (≈ 4.08 µM).

Question: With `CCCCCCCCCCCC[N+](C)(C)CC(=O)O` as the molecule, how does the pIC50 [2] read?
Answer: The pIC50 was 2.33.

Question: What about the MBC [22] of the same molecule?
Answer: Its MBC is 1100 µM.

Question: What about the MIC [23] of the same molecule?
Answer: Its MIC is 1100 µM.
